# Measured values from patent US6548052B2, “Antibacterial deodorizing compositions” (Innoscent Ltd., priority 1997, dated 2003).
# What was measured:
# S. epidermidis = assay: Inhibition test: samples applied onto bacterial lawns, growth inhibition zone; type: cell-based; details: for inhibition of S. epidermidis (in words): solvents in water, Table III
# Description: (§1) The Extraction Process: […] The mixture was vortexed for 10 min and the samples were centrifuged for 30 min at 10000 rpm. The supernatant was collected and referred to as the extract. The extract was then filtered through a 0.22 or a 0.45 μm filter. Inhibition Test: The antimicrobial activity of the various extracts was examined by applying samples (5 μl) onto lawns of axillary bacteria. Following incubation of 24 hours at 37° C., inhibition was determined by measuring the diameter of the growth inhibition zone (in cm). In the tables, “+” indicates full growth inhibition(transparent zone), “−” indicates lack of inhibition, and “+/−” indicates partial inhibition (translucent zone). For the purposes of comparative testing, 5 μl aliquots of either red or black henna extracts (20% w/v in 20% v/v ethanol) are applied to the bacterial lawns.
# C. xerosis = assay: as above; type: cell-based, Corynebacterium xerosis
# Description: as §1
# oral species = details: Didry et al. 1994; cited from earlier work
# Streptococcus aureus = details: Handbook of Medicinal Herbs; cited from earlier work
compound,measurement,setting,value
O=C1C=C(O)C(=O)c2ccccc21 [lawsone],Inhibition of S. epidermidis,S. epidermidis; 0.01% in ethanol 20%,−
same,Inhibition of S. epidermidis,S. epidermidis; 0.02% in ethanol 20%,−
same,Inhibition of S. epidermidis,S. epidermidis; 0.2% in ethanol 20%,−
same,Inhibition of S. epidermidis,S. epidermidis; 1.0% in ethanol 50%,−
same,Inhibition of S. epidermidis,S. epidermidis; 1.0% in ethanol 100%,−
same,Inhibition of S. epidermidis,S. epidermidis; 1.0% in hot water,−
same,Inhibition of C. xerosis,C. xerosis; 0.01% in ethanol 20%,−
same,Inhibition of C. xerosis,C. xerosis; 0.02% in ethanol 20%,−
same,Inhibition of C. xerosis,C. xerosis; 0.2% in ethanol 20%,−
same,Inhibition of C. xerosis,C. xerosis; 1.0% in ethanol 50%,−
same,Inhibition of C. xerosis,C. xerosis; 1.0% in ethanol 100%,−
same,Inhibition of C. xerosis,C. xerosis; 1.0% in hot water,−
same,antibacterial activity against oral species,oral species,antibacterial activity
"CO [METHANOL, methanol]",Inhibition of S. epidermidis,S. epidermidis; solvent content 5%,−
same,Inhibition of S. epidermidis,S. epidermidis; solvent content 10%,−
same,Inhibition of S. epidermidis,S. epidermidis; solvent content 15%,−
same,Inhibition of S. epidermidis,S. epidermidis; solvent content 20%,−
same,Inhibition of S. epidermidis,S. epidermidis; solvent content 25%,−
same,Inhibition of S. epidermidis,S. epidermidis; solvent content 30%,−
same,Inhibition of S. epidermidis,S. epidermidis; solvent content 35%,−
same,Inhibition of S. epidermidis,S. epidermidis; solvent content 40%,−
same,Inhibition of S. epidermidis,S. epidermidis; solvent content 45%,−
same,Inhibition of S. epidermidis,S. epidermidis; solvent content 50%,−
same,Inhibition of S. epidermidis,S. epidermidis; solvent content 55%,−
same,Inhibition of S. epidermidis,S. epidermidis; solvent content 60%,−
same,Inhibition of S. epidermidis,S. epidermidis; solvent content 65%,−
same,Inhibition of S. epidermidis,S. epidermidis; solvent content 70%,−
same,Inhibition of S. epidermidis,S. epidermidis; solvent content 75%,−
same,Inhibition of S. epidermidis,S. epidermidis; solvent content 80%,−
same,Inhibition of S. epidermidis,S. epidermidis; solvent content 90%,−
same,Inhibition of S. epidermidis,S. epidermidis; solvent content 100%,−
same,inhibition of S. epidermidis (in words),S. epidermidis,no inhibition
same,inhibition of C. xerosis (in words),C. xerosis; above 45%,some inhibition
same,Inhibition of C. xerosis,C. xerosis; solvent content 5%,−
same,Inhibition of C. xerosis,C. xerosis; solvent content 10%,−
same,Inhibition of C. xerosis,C. xerosis; solvent content 15%,−
same,Inhibition of C. xerosis,C. xerosis; solvent content 20%,−
same,Inhibition of C. xerosis,C. xerosis; solvent content 25%,−
same,Inhibition of C. xerosis,C. xerosis; solvent content 30%,−
same,Inhibition of C. xerosis,C. xerosis; solvent content 35%,−
same,Inhibition of C. xerosis,C. xerosis; solvent content 40%,−
same,Inhibition of C. xerosis,C. xerosis; solvent content 45%,+/−
same,Inhibition of C. xerosis,C. xerosis; solvent content 50%,+/−
same,Inhibition of C. xerosis,C. xerosis; solvent content 55%,+/−
same,Inhibition of C. xerosis,C. xerosis; solvent content 60%,+/−
same,"Inhibition of C. xerosis, zone diameter",C. xerosis; solvent content 60%,0.8 cm
same,Inhibition of C. xerosis,C. xerosis; solvent content 65%,+/−
same,"Inhibition of C. xerosis, zone diameter",C. xerosis; solvent content 65%,0.8 cm
same,Inhibition of C. xerosis,C. xerosis; solvent content 70%,+/−
same,"Inhibition of C. xerosis, zone diameter",C. xerosis; solvent content 70%,0.8 cm
same,Inhibition of C. xerosis,C. xerosis; solvent content 75%,+/−
same,"Inhibition of C. xerosis, zone diameter",C. xerosis; solvent content 75%,0.8 cm
same,Inhibition of C. xerosis,C. xerosis; solvent content 80%,+/−
same,"Inhibition of C. xerosis, zone diameter",C. xerosis; solvent content 80%,0.8 cm
same,Inhibition of C. xerosis,C. xerosis; solvent content 90%,+/−
same,"Inhibition of C. xerosis, zone diameter",C. xerosis; solvent content 90%,0.8 cm
same,Inhibition of C. xerosis,C. xerosis; solvent content 100%,+/−
same,"Inhibition of C. xerosis, zone diameter",C. xerosis; solvent content 100%,0.8 cm
"CCO [ETHANOL, ethanol]",Inhibition of S. epidermidis,S. epidermidis; solvent content 5%,−
same,Inhibition of S. epidermidis,S. epidermidis; solvent content 10%,−
same,Inhibition of S. epidermidis,S. epidermidis; solvent content 15%,−
same,Inhibition of S. epidermidis,S. epidermidis; solvent content 20%,−
same,Inhibition of S. epidermidis,S. epidermidis; solvent content 25%,−
same,Inhibition of S. epidermidis,S. epidermidis; solvent content 30%,−
same,Inhibition of S. epidermidis,S. epidermidis; solvent content 35%,−
same,Inhibition of S. epidermidis,S. epidermidis; solvent content 40%,−
same,Inhibition of S. epidermidis,S. epidermidis; solvent content 45%,−
same,Inhibition of S. epidermidis,S. epidermidis; solvent content 50%,−
same,Inhibition of S. epidermidis,S. epidermidis; solvent content 55%,−
same,Inhibition of S. epidermidis,S. epidermidis; solvent content 60%,−
same,Inhibition of S. epidermidis,S. epidermidis; solvent content 65%,−
same,Inhibition of S. epidermidis,S. epidermidis; solvent content 70%,−
same,Inhibition of S. epidermidis,S. epidermidis; solvent content 75%,−
same,Inhibition of S. epidermidis,S. epidermidis; solvent content 80%,−
same,Inhibition of S. epidermidis,S. epidermidis; solvent content 90%,−
same,Inhibition of S. epidermidis,S. epidermidis; solvent content 100%,−
same,inhibition of S. epidermidis (in words),S. epidermidis,no inhibition
same,inhibition of C. xerosis (in words),C. xerosis; above 40% (v/v) in water,some inhibition
same,Inhibition of C. xerosis,C. xerosis; solvent content 5%,−
same,Inhibition of C. xerosis,C. xerosis; solvent content 10%,−
same,Inhibition of C. xerosis,C. xerosis; solvent content 15%,−
same,Inhibition of C. xerosis,C. xerosis; solvent content 20%,−
same,Inhibition of C. xerosis,C. xerosis; solvent content 25%,−
same,Inhibition of C. xerosis,C. xerosis; solvent content 30%,−
same,Inhibition of C. xerosis,C. xerosis; solvent content 35%,−
same,Inhibition of C. xerosis,C. xerosis; solvent content 40%,+/−
same,"Inhibition of C. xerosis, zone diameter",C. xerosis; solvent content 40%,0.2 cm
same,Inhibition of C. xerosis,C. xerosis; solvent content 45%,+/−
same,"Inhibition of C. xerosis, zone diameter",C. xerosis; solvent content 45%,0.2 cm
same,Inhibition of C. xerosis,C. xerosis; solvent content 50%,+/−
same,"Inhibition of C. xerosis, zone diameter",C. xerosis; solvent content 50%,0.6 cm
same,Inhibition of C. xerosis,C. xerosis; solvent content 55%,+/−
same,"Inhibition of C. xerosis, zone diameter",C. xerosis; solvent content 55%,0.6 cm
same,Inhibition of C. xerosis,C. xerosis; solvent content 60%,+/−
same,"Inhibition of C. xerosis, zone diameter",C. xerosis; solvent content 60%,0.8 cm
same,Inhibition of C. xerosis,C. xerosis; solvent content 65%,+/−
same,"Inhibition of C. xerosis, zone diameter",C. xerosis; solvent content 65%,0.8 cm
same,Inhibition of C. xerosis,C. xerosis; solvent content 70%,+/−
same,"Inhibition of C. xerosis, zone diameter",C. xerosis; solvent content 70%,0.8 cm
same,Inhibition of C. xerosis,C. xerosis; solvent content 75%,+/−
same,"Inhibition of C. xerosis, zone diameter",C. xerosis; solvent content 75%,0.8 cm
same,Inhibition of C. xerosis,C. xerosis; solvent content 80%,+/−
same,"Inhibition of C. xerosis, zone diameter",C. xerosis; solvent content 80%,0.8 cm
same,Inhibition of C. xerosis,C. xerosis; solvent content 90%,+
same,"Inhibition of C. xerosis, zone diameter",C. xerosis; solvent content 90%,1.1 cm
same,Inhibition of C. xerosis,C. xerosis; solvent content 100%,+
same,"Inhibition of C. xerosis, zone diameter",C. xerosis; solvent content 100%,1.3 cm
"O=C1C=CC(=O)c2ccccc21 [1,4-naphthoquinone]",Inhibition of S. epidermidis,S. epidermidis; 0.01% in ethanol 20%,−
same,Inhibition of S. epidermidis,S. epidermidis; 0.02% in ethanol 20%,−
same,Inhibition of S. epidermidis,S. epidermidis; 0.2% in ethanol 20%,+
same,"Inhibition of S. epidermidis, zone diameter",S. epidermidis; 0.2% in ethanol 20%,1.4 cm
same,growth inhibition of S. epidermidis (in words),S. epidermidis; comment on Table I,inhibits the growth
same,Inhibition of C. xerosis,C. xerosis; 0.01% in ethanol 20%,−
same,Inhibition of C. xerosis,C. xerosis; 0.02% in ethanol 20%,−
same,Inhibition of C. xerosis,C. xerosis; 0.2% in ethanol 20%,+
same,"Inhibition of C. xerosis, zone diameter",C. xerosis; 0.2% in ethanol 20%,0.8 cm
same,growth inhibition of C. xerosis (in words),C. xerosis; comment on Table I,inhibits the growth
O=C(O)c1cc(O)c(O)c(O)c1 [gallic acid],Inhibition of S. epidermidis,S. epidermidis; 0.2% in ethanol 20%,−
same,Inhibition of S. epidermidis,S. epidermidis; 0.4% in ethanol 20%,+/−
same,Inhibition of C. xerosis,C. xerosis; 0.2% in ethanol 20%,−
same,Inhibition of C. xerosis,C. xerosis; 0.4% in ethanol 20%,−
same,inhibition of “Streptococcus aureus”,Streptococcus aureus,slightly
